The results in this text go back to the supplement of paper PMC11061612.

Each structure is given as a SMILES string.

Test in all cases: Bliss excess, mean over the matrix (fraction); higher = more synergy
Test [1] relates to EFM-19 (Breast Carcinoma). The essentials:
(§1)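 Bliss excess equals the observed combination effect minus the expected value EA + EB − EA·EB, where EA and EB are the effects of each agent alone. Combination Emax is the second-highest inhibition within the matrix. Inhibition was scaled from CellTiter-Glo 2.0 luminescence, with 0 set by vehicle wells and 1 by blank wells, after 72 hours of two-drug dosing of cells plated in 1536-well plates.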

The test system of test [2] is Caov-4 (Ovarian Carcinoma). The essentials:
as §1

Test [3] deals with KYSE-450 (Esophageal Squamous Cell Carcinoma). The method, boiled down:
as §1

For test [4], the system named is Hs-766T (Pancreatic Carcinoma). The essentials: as §1
The subject of test [5] is NUGC-3 (Gastric Carcinoma). The method, boiled down:
as §1

Test [6] concerns LU-65 (Non-Small Cell Lung Carcinoma). The essentials: as §1
Test [7] concerns KARPAS-299 (T-Cell Non-Hodgkin's Lymphoma). The method, boiled down:
as §1

Test [8] relates to YH-13 (Glioblastoma). The method, boiled down: as §1
Test [9] concerns VA-ES-BJ (Other Solid Carcinomas). The essentials: as §1
In test [10] the test system is HOP-62 (Lung Adenocarcinoma). The essentials: as §1
The test system of test [11] is TGW (Neuroblastoma). The essentials:
as §1

For test [12], the system named is NCI-H727 (Other Solid Carcinomas). The method, boiled down: as §1
Test [13] deals with MLMA (Other Blood Carcinomas). The method, boiled down: as §1
The subject of test [14] is EoL-1-cell (Acute Myeloid Leukemia). The essentials:
as §1

Test [15] relates to BT-549 (Breast Carcinoma). The method, boiled down: as §1
In test [16] the test system is PWR-1E (Non-Cancerous). The essentials:
as §1

Test [17] concerns MIA-PaCa-2 (Pancreatic Carcinoma). The essentials: as §1
Test [18] relates to KMOE-2 (Acute Myeloid Leukemia). The essentials: as §1
Test [19] concerns OSC-20 (Oral Cavity Carcinoma). The essentials:
as §1

Test [20] deals with EW-24 (Ewing's Sarcoma). The method, boiled down:
as §1

Regarding `CN(C)CCCOc1ccc(-c2ccc3ncc4c(c3c2)n(C2CCOCC2)c(=O)n4C)cn1` [AZD0156] + C=CCn1c(=O)c2cnc(Nc3ccc(N4CCN(C)CC4)cc3)nc2n1-c1cccc(C(C)(C)O)n1 [AZD1775] (first compound max 1 µM, partner max 1 µM), the Bliss excess in test [1] is -0.0295; in [2], 0.0155; in [3] it was -0.0487; in test [4] it was -0.0232; in test [5], -0.0369; in test [6], -0.0032. Also, the Bliss excess is 0.0063 in test [7]; -0.0238 in [8]; -0.0235 in test [9]; -0.0403 in test [10]; -0.0051 in [11]; -0.095 in test [12]. The Bliss excess is -0.0081 in [13]; 0.0416 in test [14]; -0.0986 in test [15]; 0.0144 in test [16]; -0.0303 in [17]; -0.039 in test [18]. Also, the Bliss excess in test [19] was -0.0443; in [20], -0.0804.
Regarding `CN(C)CCCOc1ccc(-c2ccc3ncc4c(c3c2)n(C2CCOCC2)c(=O)n4C)cn1` [AZD0156] + CCN(CCO)CCCOc1ccc2c(Nc3cc(CC(=O)Nc4cccc(F)c4)[nH]n3)ncnc2c1 [AZD2811] (first compound max 1 µM, 7x7, partner max 1 µM), the Bliss excess in [1] was -0.0331; in test [2], 0.005; in test [3] it was -0.0353; in test [4], -0.0411; in [5], 0.0312; in test [6], 0.0441. For the same compound, the Bliss excess in [7] was 0.0031; in test [8] it was -0.0119; in test [9], 0.0248; in [10], -0.046; in test [11], -0.0141; in [12] it was -0.0825. Also, the Bliss excess is -0.0431 in test [13]; -0.0696 in [14]; -0.0028 in test [15]; 0.0831 in [16]; 0.0369 in [17]; 0.0096 in test [18]. In addition, the values for the Bliss excess in [19] and in [20] were 0.0224 and 0.0199, respectively.
Take `CN(C)CCCOc1ccc(-c2ccc3ncc4c(c3c2)n(C2CCOCC2)c(=O)n4C)cn1` [AZD0156] + C[C@@H]1COCCN1C2=NC(=NC(=C2)C3(CC3)[S@](=N)(=O)C)C4=C5C=CNC5=NC=C4 [AZD6738] (first compound max 1 µM, 7x7, partner max 10 µM): the Bliss excess was -0.0264 in test [1]; -0.0388 in test [2]; -0.0099 in [3]; 0.0079 in test [4]; 0.064 in test [5]; 0.021 in test [6]. Besides, the Bliss excess was -0.0283 in test [7]; 0.0019 in test [8]; 0.0085 in [9]; -0.0232 in [10]; 0.0307 in [11]; 0.0226 in [12]. Also, the Bliss excess in test [13] was -0.0132; in test [14] it was 0.0408; in test [15], -0.0042; in test [16] it was -0.0357; in test [17], -0.0055; in test [18], -0.0252. Also, the Bliss excess in test [19] is -0.0085; in test [20] it was -0.0225.
For the compound `CN(C)CCCOc1ccc(-c2ccc3ncc4c(c3c2)n(C2CCOCC2)c(=O)n4C)cn1` [AZD0156] + O=C(c1cc(Cc2n[nH]c(=O)c3ccccc23)ccc1F)N1CCN(C(=O)C2CC2)CC1 [Olaparib] (first compound max 3 µM, partner max 3 µM), the Bliss excess is 0.0014 in test [1]; -0.0431 in [2]; -0.0054 in [3]; -0.0741 in test [4]; 0.0093 in [5]; 0.0033 in [6]. For the same compound, the Bliss excess was 0 in test [7]; 0.067 in test [8]; -0.0267 in test [9]; -0.0249 in test [10]; 0.106 in test [11]; -0.0333 in [12]. Further, the Bliss excess in [13] is 0.0255; in [14], 0.237; in test [15] it was -0.0436; in test [16] it was 0.286; in [17], -0.038; in test [18] it was 0.0564. Also, the Bliss excess is 0.0433 in test [19] and -0.0624 in [20].
Turning to `C=CCn1c(=O)c2cnc(Nc3ccc(N4CCN(C)CC4)cc3)nc2n1-c1cccc(C(C)(C)O)n1` [AZD1775] + C1CN(CCC1(C(=O)N[C@@H](CCO)C2=CC=C(C=C2)Cl)N)C3=NC=NC4=C3C=CN4 [Capivasertib] (first compound max 3 µM, partner max 3 µM), the Bliss excess in [1] is -0.0443; in [2] it was -0.0398; in test [3] it was -0.0843; in [4] it was -0.0513; in test [5] it was 0.0143; in test [6] it was -0.0688. For the same compound, the Bliss excess in test [7] is -0.0444; in [8], -0.0309; in [9], -0.0037; in [10] it was -0.0872; in [11], -0.0542; in [12] it was -0.0584. Also, the Bliss excess in test [13] is -0.0415; in test [14] it was -0.0451; in test [15], -0.0628; in [16], -0.0165; in test [17], -0.0471; in [18] it was 0.0273. Besides, the Bliss excess is -0.0196 in test [19] and -0.0878 in test [20].
For `C=CCn1c(=O)c2cnc(Nc3ccc(N4CCN(C)CC4)cc3)nc2n1-c1cccc(C(C)(C)O)n1` [AZD1775] + C[C@@H]1COCCN1C2=NC(=NC(=C2)C3(CC3)[S@](=N)(=O)C)C4=C5C=CNC5=NC=C4 [AZD6738] (first compound max 1 µM, partner max 10 µM), the Bliss excess is -0.0503 in test [1]; -0.0268 in [2]; 0.0809 in test [3]; -0.0217 in [4]; 0.0683 in test [5]; 0.0327 in [6]. Besides, the Bliss excess was 0.0169 in [7]; -0.0142 in [8]; 0.0568 in test [9]; 0.0372 in test [10]; 0.0606 in test [11]; 0.0078 in test [12]. The Bliss excess in [13] is -0.0079; in test [14], 0.0033; in [15], 0.0107; in test [16], 0.0106; in test [17], 0.12; in [18], 0.0308. For the same compound, the Bliss excess in [19] is 0.0026; in [20], -0.0427.
Consider `C=CCn1c(=O)c2cnc(Nc3ccc(N4CCN(C)CC4)cc3)nc2n1-c1cccc(C(C)(C)O)n1` [AZD1775] + O=C(c1cc(Cc2n[nH]c(=O)c3ccccc23)ccc1F)N1CCN(C(=O)C2CC2)CC1 [Olaparib] (first compound max 1 µM, partner max 10 µM), for which the Bliss excess was -0.0456 in [1]; -0.0343 in test [2]; -0.0897 in test [3]; 0.0002 in test [4]; -0.0798 in [5]; -0.0598 in test [6]. In addition, the Bliss excess was -0.0605 in test [7]; -0.0513 in test [8]; -0.0424 in test [9]; -0.0381 in test [10]; -0.0383 in test [11]; -0.0055 in test [12]. The Bliss excess in test [13] was -0.0914; in test [14] it was 0.0165; in test [15], -0.0528; in test [16], -0.0175; in [17] it was -0.0344; in [18], -0.0248. Besides, the Bliss excess is -0.0205 in [19] and -0.0708 in [20].
